Data as given in PubChem BioAssay (NCI).
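All cell lines were grown in 96-well plates and treated with compound for 48 hours. TGI is the concentration that stops growth completely.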

System: HL-60(TB) leukemia
Assay: NCI anticancer screen, dose series, 48 h

| SMILES | TGI [µM] |
| --- | --- |
| CC[C@@]1(O)C(=O)OCc2c1cc1n(c2=O)Cc2c-1nc1ccccc1c2/C=N\NC(=O)C(N)Cc1c[nH]c2ccccc12 (stereo partly drawn) | 12.1 |
| CCCCCCCCCCCCCCCCOCC(O)CO (stereo not drawn) | 23.4 |

System: RXF 393 renal
Assay: NCI anticancer screen, dose series, 48 h

| SMILES | TGI [µM] |
| --- | --- |
| CCOC(=O)C1=C(C)N(Cc2ccccc2)C2(O)C=CC(=O)C3=C(O)c4ccccc4C(=O)C312 (stereo not drawn) | 19.7 |
| COc1cc(-c2cc(=O)c3c(O)c(OC)c(OC)c(OC)c3o2)cc(OC)c1OC | 33.2 |
| COc1cc(/C=N/NC2=NCCN2)ccc1O | > 100 |
| O=C(NCCCCCN1CCC2(CCCCC2)CC1)C(C1CCCCC1)C1CCCCC1 | 8.92 |
| C/C(=N\NC(N)=S)c1ccc(C2CCCCC2)cc1 | 27.6 |
| CC[C@@]1(O)C(=O)OCc2c1cc1n(c2=O)Cc2c-1nc1ccccc1c2/C=N\NC(=O)C(N)Cc1c[nH]c2ccccc12 (stereo partly drawn) | 1.21 |
| CCCCCCCCCCCCCCCCOCC(O)CO (stereo not drawn) | 35.7 |

System: IGROV1 ovarian
Assay: NCI anticancer screen, dose series, 48 h

| SMILES | TGI [µM] |
| --- | --- |
| CCOC(=O)C1=C(C)N(Cc2ccccc2)C2(O)C=CC(=O)C3=C(O)c4ccccc4C(=O)C312 (stereo not drawn) | 17.5 |
| COc1cc(-c2cc(=O)c3c(O)c(OC)c(OC)c(OC)c3o2)cc(OC)c1OC | > 100 |
| COc1cc(/C=N/NC2=NCCN2)ccc1O | > 100 |
| O=C(NCCCCCN1CCC2(CCCCC2)CC1)C(C1CCCCC1)C1CCCCC1 | 8.78 |
| C/C(=N\NC(N)=S)c1ccc(C2CCCCC2)cc1 | 62.1 |
| CC[C@@]1(O)C(=O)OCc2c1cc1n(c2=O)Cc2c-1nc1ccccc1c2/C=N\NC(=O)C(N)Cc1c[nH]c2ccccc12 (stereo partly drawn) | > 81.5 |
| CCCCCCCCCCCCCCCCOCC(O)CO (stereo not drawn) | 31.1 |

System: OVCAR-3 ovarian
Assay: NCI anticancer screen, dose series, 48 h

| SMILES | TGI [µM] |
| --- | --- |
| CCOC(=O)C1=C(C)N(Cc2ccccc2)C2(O)C=CC(=O)C3=C(O)c4ccccc4C(=O)C312 (stereo not drawn) | 20.2 |
| COc1cc(-c2cc(=O)c3c(O)c(OC)c(OC)c(OC)c3o2)cc(OC)c1OC | > 100 |
| COc1cc(/C=N/NC2=NCCN2)ccc1O | > 100 |
| O=C(NCCCCCN1CCC2(CCCCC2)CC1)C(C1CCCCC1)C1CCCCC1 | 8.97 |
| C/C(=N\NC(N)=S)c1ccc(C2CCCCC2)cc1 | 30.5 |
| CC[C@@]1(O)C(=O)OCc2c1cc1n(c2=O)Cc2c-1nc1ccccc1c2/C=N\NC(=O)C(N)Cc1c[nH]c2ccccc12 (stereo partly drawn) | > 54.9 |
| CCCCCCCCCCCCCCCCOCC(O)CO (stereo not drawn) | 46.7 |

System: UACC-257 melanoma
Assay: NCI anticancer screen, dose series, 48 h

| SMILES | TGI [µM] |
| --- | --- |
| CCOC(=O)C1=C(C)N(Cc2ccccc2)C2(O)C=CC(=O)C3=C(O)c4ccccc4C(=O)C312 (stereo not drawn) | 32.6 |
| COc1cc(-c2cc(=O)c3c(O)c(OC)c(OC)c(OC)c3o2)cc(OC)c1OC | > 100 |
| COc1cc(/C=N/NC2=NCCN2)ccc1O | > 100 |
| O=C(NCCCCCN1CCC2(CCCCC2)CC1)C(C1CCCCC1)C1CCCCC1 | 3.43 |
| CC[C@@]1(O)C(=O)OCc2c1cc1n(c2=O)Cc2c-1nc1ccccc1c2/C=N\NC(=O)C(N)Cc1c[nH]c2ccccc12 (stereo partly drawn) | > 38 |
| CCCCCCCCCCCCCCCCOCC(O)CO (stereo not drawn) | 35.7 |

System: SF-295 CNS
Assay: NCI anticancer screen, dose series, 48 h

| SMILES | TGI [µM] |
| --- | --- |
| CCOC(=O)C1=C(C)N(Cc2ccccc2)C2(O)C=CC(=O)C3=C(O)c4ccccc4C(=O)C312 (stereo not drawn) | 31.4 |
| COc1cc(-c2cc(=O)c3c(O)c(OC)c(OC)c(OC)c3o2)cc(OC)c1OC | > 100 |
| COc1cc(/C=N/NC2=NCCN2)ccc1O | > 100 |
| O=C(NCCCCCN1CCC2(CCCCC2)CC1)C(C1CCCCC1)C1CCCCC1 | 3.56 |
| C/C(=N\NC(N)=S)c1ccc(C2CCCCC2)cc1 | 21 |
| CC[C@@]1(O)C(=O)OCc2c1cc1n(c2=O)Cc2c-1nc1ccccc1c2/C=N\NC(=O)C(N)Cc1c[nH]c2ccccc12 (stereo partly drawn) | 4.76 |
| CCCCCCCCCCCCCCCCOCC(O)CO (stereo not drawn) | 30.3 |

System: HS 578T breast
Assay: NCI anticancer screen, dose series, 48 h

| SMILES | TGI [µM] |
| --- | --- |
| CCOC(=O)C1=C(C)N(Cc2ccccc2)C2(O)C=CC(=O)C3=C(O)c4ccccc4C(=O)C312 (stereo not drawn) | 97.7 |
| COc1cc(-c2cc(=O)c3c(O)c(OC)c(OC)c(OC)c3o2)cc(OC)c1OC | > 20.7 |
| COc1cc(/C=N/NC2=NCCN2)ccc1O | > 100 |
| O=C(NCCCCCN1CCC2(CCCCC2)CC1)C(C1CCCCC1)C1CCCCC1 | 9.59 |
| CC[C@@]1(O)C(=O)OCc2c1cc1n(c2=O)Cc2c-1nc1ccccc1c2/C=N\NC(=O)C(N)Cc1c[nH]c2ccccc12 (stereo partly drawn) | > 100 |
| CCCCCCCCCCCCCCCCOCC(O)CO (stereo not drawn) | 39.7 |

System: MALME-3M melanoma
Assay: NCI anticancer screen, dose series, 48 h

| SMILES | TGI [µM] |
| --- | --- |
| CCOC(=O)C1=C(C)N(Cc2ccccc2)C2(O)C=CC(=O)C3=C(O)c4ccccc4C(=O)C312 (stereo not drawn) | 8.35 |
| COc1cc(-c2cc(=O)c3c(O)c(OC)c(OC)c(OC)c3o2)cc(OC)c1OC | > 100 |
| COc1cc(/C=N/NC2=NCCN2)ccc1O | > 100 |
| O=C(NCCCCCN1CCC2(CCCCC2)CC1)C(C1CCCCC1)C1CCCCC1 | 3.26 |
| C/C(=N\NC(N)=S)c1ccc(C2CCCCC2)cc1 | 37.6 |
| CC[C@@]1(O)C(=O)OCc2c1cc1n(c2=O)Cc2c-1nc1ccccc1c2/C=N\NC(=O)C(N)Cc1c[nH]c2ccccc12 (stereo partly drawn) | > 48.9 |
